37 compounds from US9487476B2, “Catechol diethers as potent anti-HIV agents” (priority 2011, dated 2016) can be followed below.

Common to all, as to type: cell-based
One series deals with WT HIV-1 (IIIB strain). The experiment in a line: Anti-HIV-1 activity, protection of infected MT-2 cells (MTT).
The next series deals with MT-2 human T-cells. Kind of series: Cytotoxicity, inhibition of MT-2 cell growth.
Series [1] has as its system HIV-1 variant containing the K103N/Y181C mutations. Kind of series: Anti-HIV-1 activity against double-mutant strain in MT-2 cells (MTT). The following applies: Human immunodeficiency virus 1, MT2, read-out: EC50 K103N/Y181C.
Series [2] concerns HIV-1 variant containing the Y181C (Tyr181Cys) mutation. The experiment in a line: Anti-HIV-1 activity against variant strain in MT-2 cells (MTT). The following applies: Human immunodeficiency virus 1, MT2, read-out: EC50 Y181C.
The mark [3] stands for this setting: Human immunodeficiency virus 1, IIIB, MT2, running text, read-out: EC50 against WT HIV-1.
The mark [4] stands for this setting: Table 4, catechol diether derivatives, MT-2 cells, read-out: Anti-HIV-1 Activity (EC50).

Like-named read-outs stand apart in the source and are kept apart here. A value given as a limit tells only on which side of the number the result lay.

Turning to `Cc1ccc(OCCn2ccc(=O)[nH]c2=O)c(Cc2ccccc2)c1` [Compound 1, 1-(2-(2-benzyl-4-methylphenoxy)ethyl)pyrimidine-2,4(1H,3H)-dione], the EC50 with WT HIV-1 (IIIB strain) (setting [3]) was found to be 5 µM.

A word on the CC50: it is the concentration at which the toxic effect on the cells reaches its halfway point. The low end stands for harm at low concentration, the high end for better tolerance by the cells. Regarding `O=c1ccn(CCOc2ccc(Cl)cc2Cc2ccccc2)c(=O)[nH]1` [Compound 5, 1-(2-(2-benzyl-4-chlorophenoxy)ethyl)pyrimidine-2,4(1H,3H)-dione], in the series on MT-2 human T-cells (human), half-maximal cytotoxicity (CC50) was put at 23 µM.

Compound `O=c1ccn(CCOc2ccc(Cl)cc2Cc2ccccc2Cl)c(=O)[nH]1` [Compound 6, 1-(2-(4-chloro-2-(2-chlorobenzyl)phenoxy)ethyl)pyrimidine-2,4(1H,3H)-dione] returned a CC50 with MT-2 human T-cells (human) of 28 µM.

On to `O=c1ccn(CCOc2ccc(Cl)cc2Cc2cccc(Cl)c2)c(=O)[nH]1` [Compound 7, 1-(2-(4-chloro-2-(3-chlorobenzyl)phenoxy)ethyl)pyrimidine-2,4(1H,3H)-dione], for which, in the series with MT-2 human T-cells (human), the midpoint of cytotoxicity, the CC50, lay at 11 µM.

For the compound `O=c1ccn(CCOc2ccc(Cl)cc2Cc2ccc(Cl)cc2Cl)c(=O)[nH]1` [Compound 8, 1-(2-(4-chloro-2-(2,4-dichlorobenzyl)phenoxy)ethyl)pyrimidine-2,4(1H,3H)-dione], the CC50 in the series with MT-2 human T-cells (human) is 88 µM.

On to `O=c1ccn(CCOc2ccc(Cl)cc2Cc2cc(Cl)cc(Cl)c2)c(=O)[nH]1` [Compound 9, 1-(2-(4-chloro-2-(3,5-dichlorobenzyl)phenoxy)ethyl)pyrimidine-2,4(1H,3H)-dione], for which the cytotoxic concentration (CC50) with MT-2 human T-cells (human) amounted to 10 µM.

As to `O=c1ccn(CCOc2ccc(Cl)cc2Cc2cc(Cl)ccc2Cl)c(=O)[nH]1` [Compound 10, 1-(2-(4-chloro-2-(2,5-dichlorobenzyl)phenoxy)ethyl)pyrimidine-2,4(1H,3H)-dione], half-maximal cytotoxicity in the series with MT-2 human T-cells (human) (CC50) was put at 15 µM.

`O=c1ccn(CCOc2ccc(Cl)cc2Cc2c(Cl)cccc2Cl)c(=O)[nH]1` [Compound 11, 1-(2-(4-chloro-2-(2,6-dichlorobenzyl)phenoxy)ethyl)pyrimidine-2,4(1H,3H)-dione] came in with a CC50 in the series with MT-2 human T-cells (human) of 49 µM.

`Cc1cn(CCOc2ccc(Cl)cc2Cc2ccccc2)c(=O)[nH]c1=O` [Compound 12, 1-(2-(2-benzyl-4-chlorophenoxy)ethyl)-5-methylpyrimidine-2,4(1H,3H)-dione]: the 50% cytotoxic concentration (CC50) in the series on MT-2 human T-cells (human) was 22 µM.

In the series on MT-2 human T-cells (human), `O=c1[nH]c(=O)n(CCOc2ccc(Cl)cc2Cc2ccccc2)cc1F` [Compound 13, 1-(2-(2-benzyl-4-chlorophenoxy)ethyl)-5-fluoropyrimidine-2,4(1H,3H)-dione] yielded a 50% cytotoxic concentration (CC50) of 27 µM.

In the case of `O=c1[nH]c(=O)n(CCOc2ccc(Cl)cc2Cc2ccccc2)cc1Cl` [Compound 14, 1-(2-(2-benzyl-4-chlorophenoxy)ethyl)-5-chloropyrimidine-2,4(1H,3H)-dione], it took 21 µM to reach half-maximal cytotoxicity in the series on MT-2 human T-cells (human) (CC50).

In the series with MT-2 human T-cells (human), `O=c1ccn(CCOc2cc(Cl)ccc2Cc2ccccc2Cl)c(=O)[nH]1` [Compound 15, 1-(2-(5-chloro-2-(2-chlorobenzyl)phenoxy)ethyl)pyrimidine-2,4(1H,3H)-dione] returned a CC50 of 12 µM.

On to `N#Cc1cc(C#N)cc(Oc2cc(Cl)ccc2OCCn2ccc(=O)[nH]c2=O)c1` [Compound 20, 5-(5-chloro-2-(2-(2,4-dioxo-3,4-dihydropyrimidin-1(2H)-yl)ethoxy)phenoxy)isophthalonitrile], for which the results for the EC50 in series [1] and in series [2] were 2.2 µM and 21 µM, respectively.

In the series with MT-2 human T-cells (human), `N#Cc1cccc(Cl)c1Oc1cc(Cl)ccc1OCCn1ccc(=O)[nH]c1=O` [Compound 21, 3-chloro-2-(5-chloro-2-(2-(2,4-dioxo-3,4-dihydropyrimidin-1(2H)-yl)ethoxy)phenoxy)benzonitrile] yielded a CC50 of 50 µM.

As to `N#Cc1cc(Cl)cc(Oc2cc(Cl)ccc2OCCn2ccc(=O)[nH]c2=O)c1` [Compound 22, 3-chloro-5-(5-chloro-2-(2-(2,4-dioxo-3,4-dihydropyrimidin-1(2H)-yl)ethoxy)phenoxy)benzonitrile], the figures for the EC50 in series [1] and in series [2] were 1.2 µM and 6.7 µM, respectively.

For the compound `N#Cc1ccc(Cl)c(Oc2ccc(Cl)cc2OCCn2ccc(=O)[nH]c2=O)c1` [Compound 23, 4-chloro-3-(4-chloro-2-(2-(2,4-dioxo-3,4-dihydropyrimidin-1(2H)-yl)ethoxy)phenoxy)benzonitrile], half-maximal cytotoxicity with MT-2 human T-cells (human) (CC50) was put at 60 µM.

In turn, `N#Cc1cc(C#N)cc(Oc2ccc(Cl)cc2OCCn2ccc(=O)[nH]c2=O)c1` [Compound 24, 5-(4-chloro-2-(2-(2,4-dioxo-3,4-dihydropyrimidin-1(2H)-yl)ethoxy)phenoxy)isophthalonitrile] gave a CC50 with MT-2 human T-cells (human) of over 100 µM.

Turning to `N#Cc1cc(Cl)cc(Oc2ccc(Cl)cc2OCCn2cc(F)c(=O)[nH]c2=O)c1` [Compound 26, 3-chloro-5-(4-chloro-2-(2-(5-fluoro-2,4-dioxo-3,4-dihydropyrimidin-1(2H)-yl)ethoxy)phenoxy)benzonitrile], the EC50 in series [1] amounted to 1.7 µM; in series [2] it was 0.62 µM.

`N#Cc1cc(Cl)cc(Oc2ccc(C#N)cc2OCCn2ccc(=O)[nH]c2=O)c1` [Compound 28, 4-(3-chloro-5-cyanophenoxy)-3-(2-(2,4-dioxo-3,4-dihydropyrimidin-1(2H)-yl)ethoxy)benzonitrile] registered a CC50 with MT-2 human T-cells (human) of over 100 µM.

`N#Cc1cc(Cl)cc(Oc2ccc(C#N)cc2OCCn2cc(Cl)c(=O)[nH]c2=O)c1` [Compound 29, 3-(2-(5-chloro-2,4-dioxo-3,4-dihydropyrimidin-1(2H)-yl)ethoxy)-4-(3-chloro-5-cyanophenoxy)benzonitrile] had a CC50 with MT-2 human T-cells (human) of 94 µM.

As for `N#Cc1ccc(Oc2ccccc2Cl)c(OCCn2ccc(=O)[nH]c2=O)c1` [Compound 30, 4-(2-chlorophenoxy)-3-(2-(2,4-dioxo-3,4-dihydropyrimidin-1(2H)-yl)ethoxy)benzonitrile], in the series on MT-2 human T-cells (human), the CC50 was over 100 µM. Moreover, the EC50 in the series with WT HIV-1 (IIIB strain) (setting [3]) was determined as 0.27 µM.

As to `N#Cc1ccc(Oc2cc(Cl)ccc2Cl)c(OCCn2ccc(=O)[nH]c2=O)c1` [Compound 31, 4-(2,5-dichlorophenoxy)-3-(2-(2,4-dioxo-3,4-dihydropyrimidin-1(2H)-yl)ethoxy)benzonitrile], the EC50 with WT HIV-1 (IIIB strain) (setting [3]) came to 0.043 µM; in series [1] it was 2.8 µM; in series [2], 0.92 µM.

For `N#Cc1ccc(Oc2cc(Cl)cc(Cl)c2)c(OCCn2ccc(=O)[nH]c2=O)c1` [Compound 32, 4-(3,5-dichlorophenoxy)-3-(2-(2,4-dioxo-3,4-dihydropyrimidin-1(2H)-yl)ethoxy)benzonitrile], the EC50 in the series with WT HIV-1 (IIIB strain) (setting [3]) was 0.02 µM; in series [1], over 43 µM; in series [2], 0.8 µM.

For the compound `N#Cc1ccc(Oc2cc(Cl)ccc2Cl)c(OCCc2ccncc2)c1` [Compound 33, 4-(2,5-dichlorophenoxy)-3-(2-(pyridin-4-yl)ethoxy)benzonitrile], the EC50 in the series on WT HIV-1 (IIIB strain) (setting [3]) was determined as 0.76 µM.

With `N#Cc1ccc(Oc2cc(Cl)ccc2Cl)c(OCc2ccncc2)c1` [Compound 34], the EC50 in the series on WT HIV-1 (IIIB strain) (setting [3]) came to 12 µM.

Regarding `N#Cc1ccc(Oc2cc(Cl)ccc2Cl)c(COCc2ccncc2)c1` [Compound 35, 4-(2,5-dichlorophenoxy)-3-((pyridin-4-ylmethoxy)methyl)benzonitrile], the EC50 with WT HIV-1 (IIIB strain) (setting [3]) was 1.8 µM.

Take `COc1cc(Cl)ccc1Oc1cc(Cl)cc(C#N)c1` [Compound 36, 3-chloro-5-(4-chloro-2-methoxyphenoxy)benzonitrile]: the EC50 in the series with WT HIV-1 (IIIB strain) (setting [3]) stood at 9.9 µM.

Consider `N#C/C=C/c1cccc(Oc2ccc(C#N)cc2OCCn2ccc(=O)[nH]c2=O)c1` [Compound 40, (E)-4-(3-(2-cyanovinyl)phenoxy)-3-(2-(2,4-dioxo-3,4-dihydropyrimidin-1(2H)-yl)ethoxy)benzonitrile], for which the figures for the EC50 (in the series with WT HIV-1 (IIIB strain) (setting [3]); in series [1]; in series [2]) were 0.015 µM, 8 µM and 0.98 µM, respectively.

Consider `N#Cc1cc(F)c(Oc2ccccc2Cl)c(OCCn2ccc(=O)[nH]c2=O)c1` [Compound 44, 4-(2-chlorophenoxy)-3-(2-(2,4-dioxo-3,4-dihydropyrimidin-1(2H)-yl)ethoxy)-5-fluorobenzonitrile], for which the half-maximal cytotoxic concentration (CC50) in the series on MT-2 human T-cells (human) was over 100 µM. Also, the EC50 in the series on WT HIV-1 (IIIB strain) (setting [3]) was 0.16 µM.

Consider `O=c1ccn(CCOc2cc(Cl)cc(Cl)c2Oc2ccccc2Cl)c(=O)[nH]1` [Compound 45, 1-(2-(3,5-dichloro-2-(2-chlorophenoxy)phenoxy)ethyl)pyrimidine-2,4(1H,3H)-dione], for which the midpoint of cytotoxicity in the series on MT-2 human T-cells (human), the CC50, lay at 13 µM. The EC50 in the series on WT HIV-1 (IIIB strain) (setting [3]) was 0.83 µM.

Regarding `COCCOc1cccc(Oc2ccc(C#N)cc2OCCn2ccc(=O)[nH]c2=O)c1` [Compound 46, 3-(2-(2,4-dioxo-3,4-dihydropyrimidin-1(2H)-yl)ethoxy)-4-(3-(2-methoxyethoxy)phenoxy)benzonitrile], in the series on MT-2 human T-cells (human), the cytotoxic concentration (CC50) is over 100 µM. Moreover, in the series with WT HIV-1 (IIIB strain) (setting [3]), the EC50 is 0.54 µM.

In turn, `N#Cc1ccc(Oc2cccc(OCCCO)c2)c(OCCn2ccc(=O)[nH]c2=O)c1` [Compound 47, 3-(2-(2,4-dioxo-3,4-dihydropyrimidin-1(2H)-yl)ethoxy)-4-(3-(3-hydroxypropoxy)phenoxy)benzonitrile] returned a CC50 with MT-2 human T-cells (human) of over 100 µM. In addition, the EC50 in the series with WT HIV-1 (IIIB strain) (setting [3]) came to 1.8 µM.

In the series on MT-2 human T-cells, `N#C/C=C/c1cc(F)cc(Oc2ccc(Br)cc2OCCn2ccc(=O)[nH]c2=O)c1` [JLJ511] showed a 50% cytotoxic concentration (CC50) of 15 µM. In the series on WT HIV-1 (IIIB strain) (setting [4]), the EC50 was determined as 0.0018 µM.

In turn, `N#C/C=C/c1cc(Br)cc(Oc2ccc(Cl)cc2OCCn2ccc(=O)[nH]c2=O)c1` [JLJ518] came in with a cytotoxic concentration (CC50) in the series with MT-2 human T-cells of 80 µM. In addition, the EC50 in the series with WT HIV-1 (IIIB strain) (setting [4]) came out at 0.0052 µM.

In the series with MT-2 human T-cells, `N#C/C=C/c1cc(F)cc(Oc2ccc(OCCN3CCOCC3)cc2OCCn2ccc(=O)[nH]c2=O)c1` [JLJ526] came in with a CC50 of 27 µM. The EC50 with WT HIV-1 (IIIB strain) (setting [4]) was 0.52 µM.

The compound `N#C/C=C/c1cc(Cl)cc(Oc2ccc(OCCN3CCOCC3)cc2OCCn2ccc(=O)[nH]c2=O)c1` [JLJ530] gave a CC50 in the series with MT-2 human T-cells of 100 µM. The EC50 in the series with WT HIV-1 (IIIB strain) (setting [4]) worked out at 1.1 µM.

`N#C/C=C/c1cc(Cl)cc(Oc2ccc(Br)cc2OCCn2ccc(=O)[nH]c2=O)c1` [JLJ531] registered a CC50 in the series with MT-2 human T-cells of 13 µM. Further, in the series on WT HIV-1 (IIIB strain) (setting [4]), the EC50 worked out at 0.0091 µM.
